Measurements: patent US20090029992A1, “SUBSTITUTED PYRAZOLE COMPOUNDS” (priority 2007, published 2009)

How the values were obtained:
Type in all cases: biochemical
[1] = target: T1, N-terminal His6-tagged recombinant human KDR, residues 790-end (Homo sapiens, UniProt P35968); experiment: KDR kinase inhibition assay (33P-ATP filter assay)
T1 construct: recombinant human KDR, residues 790-end; His6 (N); purchased Upstate USA Inc, 706 Forest Street, Charlottesville, Va
In short: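 Radiometric filter assay: reaction started with Mg acetate (10 mM)/[γ-33P]ATP mix, run 40 min at room temperature in 8 mM MOPS pH 7.0 with 0.2 mM EDTA, MBP substrate (0.33 mg/mL) and recombinant KDR 790-end (5-10 mU). Phosphate incorporation by scintillation counting of P30 filtermats, compared with uninhibited reactions.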

[2] = target: T2, N-terminal His-tagged human Src (Homo sapiens, UniProt P12931); experiment: Src kinase inhibition assay (33P-ATP filter assay)
T2 construct: His (N); purchased Upstate USA Inc, 706 Forest Street, Charlottesville, Va

[3] = target: T3, N-terminal GST-tagged recombinant human Flt3, residues 564-end (Homo sapiens, UniProt P36888); experiment: Flt3 kinase inhibition assay (33P-ATP filter assay); conditions: 40 minutes at room temperature
T3 construct: recombinant human Flt3, residues 564-end; GST (N); purchased Upstate USA Inc, 706 Forest Street, Charlottesville, Va
T3 sequence (P36888 564-993 limits assumed): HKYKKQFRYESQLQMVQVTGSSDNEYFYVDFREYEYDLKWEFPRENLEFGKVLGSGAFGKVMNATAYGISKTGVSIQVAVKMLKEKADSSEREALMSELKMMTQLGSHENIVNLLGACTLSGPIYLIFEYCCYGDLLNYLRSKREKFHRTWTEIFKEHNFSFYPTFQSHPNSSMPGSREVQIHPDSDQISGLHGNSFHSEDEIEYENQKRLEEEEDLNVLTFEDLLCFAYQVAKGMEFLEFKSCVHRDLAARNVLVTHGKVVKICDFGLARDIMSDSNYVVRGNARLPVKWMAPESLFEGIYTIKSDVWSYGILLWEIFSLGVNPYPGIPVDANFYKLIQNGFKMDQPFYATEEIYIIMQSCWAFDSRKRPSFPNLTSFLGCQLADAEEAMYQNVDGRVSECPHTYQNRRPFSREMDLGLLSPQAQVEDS
In short: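 Serial compound dilutions incubated 40 min at room temperature with 5-10 mU Flt3 kinase, 50 μM peptide substrate and [γ-33P]ATP/10 mM magnesium acetate, pH 7.0. Phosphoric acid stop, filter capture and scintillation counting; activity compared with uninhibited reactions.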

[4] = group with IC50 greater than 100 nM

T1 sequence (P35968 790-1356 limits assumed): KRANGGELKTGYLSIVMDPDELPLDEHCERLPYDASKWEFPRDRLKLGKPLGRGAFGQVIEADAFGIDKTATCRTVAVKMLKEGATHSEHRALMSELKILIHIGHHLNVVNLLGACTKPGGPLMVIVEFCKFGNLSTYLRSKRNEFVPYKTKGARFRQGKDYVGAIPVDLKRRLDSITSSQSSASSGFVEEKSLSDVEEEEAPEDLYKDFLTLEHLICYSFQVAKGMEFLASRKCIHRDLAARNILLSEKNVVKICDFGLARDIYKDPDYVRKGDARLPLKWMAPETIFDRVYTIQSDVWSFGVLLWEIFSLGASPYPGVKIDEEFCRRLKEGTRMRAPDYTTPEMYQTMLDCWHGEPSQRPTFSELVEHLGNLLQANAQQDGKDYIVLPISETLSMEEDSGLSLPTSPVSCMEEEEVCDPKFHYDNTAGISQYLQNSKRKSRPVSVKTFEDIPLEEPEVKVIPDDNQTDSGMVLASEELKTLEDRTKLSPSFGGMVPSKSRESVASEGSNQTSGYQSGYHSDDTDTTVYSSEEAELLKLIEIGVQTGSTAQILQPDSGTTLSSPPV
T2 sequence (P12931 whole entry): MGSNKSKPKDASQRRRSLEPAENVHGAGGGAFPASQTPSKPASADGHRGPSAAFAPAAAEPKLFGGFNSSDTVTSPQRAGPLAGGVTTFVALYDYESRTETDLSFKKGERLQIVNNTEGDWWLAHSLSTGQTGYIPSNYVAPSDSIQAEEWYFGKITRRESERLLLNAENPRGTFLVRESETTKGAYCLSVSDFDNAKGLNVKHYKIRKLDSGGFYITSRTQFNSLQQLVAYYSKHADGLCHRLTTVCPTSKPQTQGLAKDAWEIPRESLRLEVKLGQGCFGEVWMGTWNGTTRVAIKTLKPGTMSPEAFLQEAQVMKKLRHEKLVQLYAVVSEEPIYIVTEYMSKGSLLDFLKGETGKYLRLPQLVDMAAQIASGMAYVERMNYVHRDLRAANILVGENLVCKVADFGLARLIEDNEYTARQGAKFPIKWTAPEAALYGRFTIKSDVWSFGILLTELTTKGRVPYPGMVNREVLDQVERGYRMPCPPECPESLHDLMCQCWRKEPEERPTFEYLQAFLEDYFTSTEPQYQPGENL

Structure (SMILES)	IC50 ([1]; 40 minutes at room temperature)	IC50 ([2]; 40 minutes at room temperature)	IC50 [3]	IC50 [1, 4]	IC50 [2, 4]
Cc1cc(Nc2cc(N3CCN(C)CC3)nc(-c3cc4ccccc4o3)n2)n[nH]1 [Compound 1, 2-(benzofuran-2-yl)-N-(5-methyl-1H-pyrazol-3-yl)-6-(4-methylpiperazin-1-yl)pyrimidin-4-amine]	≤ 100 nM	≤ 100 nM	≤ 100 nM		
Cc1cc(Nc2cc(N3CCN(C)CC3)nc(-c3cc4ccccc4n3C)n2)n[nH]1 [Compound 2, 2-(1-methyl-1H-indol-2-yl)-N-(5-methyl-1H-pyrazol-3-yl)-6-(4-methylpiperazin-1-yl)pyrimidin-4-amine]	≤ 100 nM	≤ 100 nM	≤ 100 nM		
Cc1cc(Nc2cc(N3CCC(O)CC3)nc(-c3cc4ccccc4n3C)n2)n[nH]1 [Compound 3, 1-(6-(5-methyl-1H-pyrazol-3-ylamino)-2-(1-methyl-1H-indol-2-yl)pyrimidin-4-yl)piperidin-4-ol]	≤ 100 nM	≤ 100 nM	≤ 100 nM		
Cc1cc(Nc2cc(N(C)CCN(C)C)nc(-c3cc4ccccc4n3C)n2)n[nH]1 [Compound 4, N^4-(2-(dimethylamino)ethyl)-N^4-methyl-2-(1-methyl-1H-indol-2-yl)-N^6-(5-methyl-1H-pyrazol-3-yl)pyrimidine-4,6-diamine]		≤ 100 nM	≤ 100 nM	≤ 1000 nM	
Cc1cc(Nc2cc(NCCN3CCOCC3)nc(-c3cc4ccccc4n3C)n2)n[nH]1 [Compound 5, 2-(1-methyl-1H-indol-2-yl)-N^4-(5-methyl-1H-pyrazol-3-yl)-N^6-(2-morpholinoethyl)pyrimidine-4,6-diamine]		≤ 100 nM	≤ 100 nM	≤ 1000 nM	
CC(=O)N1CCN(c2cc(Nc3cc(C)[nH]n3)nc(-c3cc4ccccc4n3C)n2)CC1 [Compound 6, 1-(4-(6-(5-methyl-1H-pyrazol-3-ylamino)-2-(1-methyl-1H-indol-2-yl)pyrimidin-4-yl)-piperazin-1-yl)ethanone]	≤ 100 nM	≤ 100 nM	≤ 100 nM		
Cc1cc(Nc2cc(NC3CCOCC3)nc(-c3cc4ccccc4n3C)n2)n[nH]1 [Compound 7, N^4-(tetrahydro-2H-pyran-4-yl)-2-(1-methyl-1H-indol-2-yl)-N^6-(5-methyl-1H-pyrazol-3-yl)pyrimidine-4,6-diamine]			≤ 100 nM	≤ 1000 nM	≤ 1000 nM
Cc1cc(Nc2cc(N3CCN(C)CC3)nc(-c3ccccc3)n2)n[nH]1 [Compound 8, N-(5-methyl-1H-pyrazol-3-yl)-6-(4-methylpiperazin-1-yl)-2-phenyl pyrimidin-4-amine]	≤ 100 nM	≤ 100 nM	≤ 100 nM		
Cc1cc(Nc2cc(N(C)CCN(C)C)nc(-c3ccccc3)n2)n[nH]1 [Compound 9, N^4-(2-(dimethylamino)ethyl)-N^4-methyl-N^6-(5-methyl-1H-pyrazol-3-yl)-2-phenylpyrimidine-4,6-diamine]	≤ 100 nM		≤ 100 nM		≤ 1000 nM
COCCNc1cc(Nc2cc(C)[nH]n2)nc(-c2ccccc2)n1 [Compound 10, N^4-(2-methoxyethyl)-N^6-(5-methyl-1H-pyrazol-3-yl)-2-phenylpyrimidine-4,6-diamine]	≤ 100 nM		≤ 100 nM		
Cc1cc(Nc2cc(NCCN3CCOCC3)nc(-c3ccccc3)n2)n[nH]1 [Compound 11, N^4-(5-methyl-1H-pyrazol-3-yl)-N^6-(2-morpholinoethyl)-2-phenylpyrimidine-4,6-diamine]	≤ 100 nM		≤ 100 nM		≤ 1000 nM
Cc1cc(Nc2cc(NC3CCOCC3)nc(-c3ccccc3)n2)n[nH]1 [Compound 12, N^4-(tetrahydro-2H-pyran-4-yl)-N^6-(5-methyl-1H-pyrazol-3-yl)-2-phenylpyrimidine-4,6-diamine]	≤ 100 nM	≤ 100 nM	≤ 100 nM		

The next lines start with the values.

IC50 ([1]; 40 minutes at room temperature)	IC50 ([2]; 40 minutes at room temperature)	IC50 [3]	IC50 [1, 4]	IC50 [2, 4]	Structure (SMILES)
≤ 100 nM		≤ 100 nM		≤ 1000 nM	Cc1cc(Nc2cc(NCCN3CCN(C)CC3)nc(-c3ccccc3)n2)n[nH]1 [Compound 13, N^4-(5-methyl-1H-pyrazol-3-yl)-N^6-(2-(4-methylpiperazin-1-yl)ethyl)-2-phenylpyrimidine-4,6-diamine]
		≤ 100 nM	≤ 1000 nM	≤ 1000 nM	Cc1cc(Nc2cc(N3CCN(C)CC3)nc(-c3ccco3)n2)n[nH]1 [Compound 14, 2-(furan-2-yl)-N-(5-methyl-1H-pyrazol-3-yl)-6-(4-methylpiperazin-1-yl)-pyrimidin-4-amine]
≤ 100 nM	≤ 100 nM	≤ 100 nM			Cc1cc(Nc2cc(NC3CCOCC3)nc(-c3cc4ccccc4o3)n2)n[nH]1 [Compound 15, 2-(benzofuran-2-yl)-N^4-(tetrahydro-2H-pyran-4-yl)-N^6-(5-methyl-1H-pyrazol-3-yl)-pyrimidine-4,6-diamine]
≤ 100 nM	≤ 100 nM	≤ 100 nM			Cc1cc(Nc2cc(N3CCN(C)CC3)nc(-c3cccc(-c4ccccc4)c3)n2)n[nH]1 [Compound 16, 2-(biphenyl-3-yl)-N-(5-methyl-1H-pyrazol-3-yl)-6-(4-methylpiperazin-1-yl)pyrimidin-4-amine]
		≤ 100 nM	≤ 1000 nM	≤ 1000 nM	Cc1cc(Nc2cc(NC3CCOCC3)nc(-c3ccc(F)cc3)n2)n[nH]1 [Compound 19, 2-(4-fluorophenyl)-N^4-(5-methyl-1H-pyrazol-3-yl)-N^6-(tetrahydro-2H-pyran-4-yl)pyrimidine-4,6-diamine]
≤ 100 nM	≤ 100 nM	≤ 100 nM			Cc1cc(Nc2cc(NC3CCOCC3)nc(-c3cccc(F)c3)n2)n[nH]1 [Compound 20, 2-(3-fluorophenyl)-N^4-(5-methyl-1H-pyrazol-3-yl)-N^6-(tetrahydro-2H-pyran-4-yl)pyrimidine-4,6-diamine]
		≤ 100 nM	≤ 1000 nM	≤ 1000 nM	Cc1cc(Nc2cc(NC3CCOCC3)nc(-c3ccc(Cl)cc3)n2)n[nH]1 [Compound 22, 2-(4-chlorophenyl)-N^4-(5-methyl-1H-pyrazol-3-yl)-N^6-(tetrahydro-2H-pyran-4-yl)pyrimidine-4,6-diamine]
≤ 100 nM	≤ 100 nM	≤ 100 nM			COc1cccc(-c2nc(Nc3cc(C)[nH]n3)cc(NC3CCOCC3)n2)c1 [Compound 29, 2-(3-methoxyphenyl)-N^4-(5-methyl-1H-pyrazol-3-yl)-N^6-(tetrahydro-2H-pyran-4-yl)pyrimidine-4,6-diamine]
	≤ 100 nM	≤ 100 nM	≤ 1000 nM		Cc1cc(Nc2cc(N3CCN(C)CC3)nc(-c3ccc(F)cc3)n2)n[nH]1 [Compound 32, 2-(4-fluorophenyl)-N-(5-methyl-1H-pyrazol-3-yl)-6-(4-methylpiperazin-1-yl)pyrimidin-4-amine]
≤ 100 nM	≤ 100 nM	≤ 100 nM			Cc1cc(Nc2cc(N3CCN(C)CC3)nc(-c3cccc(F)c3)n2)n[nH]1 [Compound 33, 2-(3-fluorophenyl)-N-(5-methyl-1H-pyrazol-3-yl)-6-(4-methylpiperazin-1-yl)pyrimidin-4-amine]
	≤ 100 nM	≤ 100 nM			Cc1cc(Nc2cc(N3CCN(C)CC3)nc(-c3cccc(N(C)C)c3)n2)n[nH]1 [Compound 86, 2-(3-(dimethylamino)phenyl)-N-(5-methyl-1H-pyrazol-3-yl)-b-(4-methylpiperazin-1-yl)pyrimidin-4-amine]
		≤ 100 nM		≤ 1000 nM	Cc1cc(Nc2cc(NC3CCOCC3)nc(-c3ccc(-c4ccccc4)cc3)n2)n[nH]1 [Example 158, 2-(biphenyl-4-yl)-N^4-(5-methyl-1H-pyrazol-3-yl)-N^6-(tetrahydro-2H-pyran-4-yl)pyrimidine-4,6-diamine]
	≤ 100 nM	≤ 100 nM			Cc1cc(Nc2cc(N3CCN(C)CC3)nc(-c3ccc([N+](=O)[O-])cc3)n2)n[nH]1 [Example 164, N-(5-methyl-1H-pyrazol-3-yl)-6-(4-methylpiperazin-1-yl)-2-(4-nitrophenyl)pyrimidin-4-amine]
≤ 100 nM		≤ 100 nM			CC(=O)c1cccc(-c2nc(Nc3cc(C)[nH]n3)cc(N3CCN(C)CC3)n2)c1 [Example 165, 1-(3-(4-(5-methyl-1H-pyrazol-3-ylamino)-6-(4-methylpiperazin-1-yl)pyrimidin-2-yl)phenyl)ethanone]
	≤ 100 nM	≤ 100 nM			Cc1cc(Nc2cc(N3CCN(C)CC3)nc(-c3cc(F)cc(F)c3)n2)n[nH]1 [Example 170, 2-(3,5-difluorophenyl)-N-(5-methyl-1H-pyrazol-3-yl)-6-(4-methylpiperazin-1-yl)pyrimidin-4-amine]
